Results taken from patent publication US6372297B1, “Wood preservative oxathiazines” (Uniroyal Chemical Company, Inc., priority 1993, dated 2002).

How the values were obtained:
[1] = tested on: blue-stain fungi and molds; assay: Activity against blue-stain fungi and molds in a stick test (threshold concentrations); settings: beech sticks, 22° C., 90% relative humidity; for Threshold concentration (ppm), A. niger, score 0 / Threshold concentration (ppm), Aureobasidium, score 0 / Threshold concentration (ppm), Sclerophoma, score 0 / Threshold concentration (ppm), Trichoderma, score 0: minimum concentration to obtain score 0; for Threshold concentration (ppm), A. niger, score 1-2 / Threshold concentration (ppm), Aureobasidium, score 1-2 / Threshold concentration (ppm), Sclerophoma, score 1-2 / Threshold concentration (ppm), Trichoderma, score 1-2: minimum concentration to obtain score 1-2
In short: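 Wood sticks soaked 3 h in compound serially diluted in 50% ethanol, dried, then inoculated with fungal or spore suspension. Incubated at 22° C and 90% relative humidity until untreated controls grew, then growth scored 0 (none) to 4 (>50% surface covered).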

[2] = tested on: mixed spore suspension: Aureobasidium pullulans, Aspergillus amstelodami, Ceratocystis pilifera, Cladosporium sp., Penicillium sp., Sclerophomas entoxylina …; assay: Control of molds and sapstain fungi in mini-board test; set-up: key to Surface score of treated mini-boards, 3 week incubation, 1500 ppm / Surface score of treated mini-boards, 3 week incubation, 2500 ppm: 0: Free of fungal growth; 1: Traces of fungal growth; 2: Little fungal growth; 3: Moderate fungal growth; 4: Vigorous to maximum growth (all surfaces covered with fungal growth)

[O-][S+]1CCON=C1c1cccs1 (stereo not drawn) [Compound 8]
Threshold concentration (ppm), A. niger, score 0 [1]: 1000 ppm | Threshold concentration (ppm), A. niger, score 1-2 [1]: 250-500 ppm | Threshold concentration (ppm), Aureobasidium, score 0 [1]: >1000 ppm | Threshold concentration (ppm), Aureobasidium, score 1-2 [1]: 250-500 ppm | Threshold concentration (ppm), Sclerophoma, score 0 [1]: 100 ppm | Threshold concentration (ppm), Sclerophoma, score 1-2 [1]: 50-100 ppm | Threshold concentration (ppm), Trichoderma, score 0 [1]: 1000 ppm | Threshold concentration (ppm), Trichoderma, score 1-2 [1]: 500-1000 ppm | Surface score of treated mini-boards, 3 week incubation, 1500 ppm [2]: 0 | Surface score of treated mini-boards, 6 week incubation, 1500 ppm [2]: 0.8 | Surface score of treated mini-boards, 3 week incubation, 2500 ppm [2]: 0 | Surface score of treated mini-boards, 6 week incubation, 2500 ppm [2]: 0.4

O=S1(=O)CCON=C1c1cccs1 [Compound 34]
Threshold concentration (ppm), A. niger, score 0 [1]: 500 ppm | Threshold concentration (ppm), A. niger, score 1-2 [1]: <250 ppm | Threshold concentration (ppm), Aureobasidium, score 0 [1]: >1000 ppm | Threshold concentration (ppm), Aureobasidium, score 1-2 [1]: 250-500 ppm | Threshold concentration (ppm), Sclerophoma, score 0 [1]: 100 ppm | Threshold concentration (ppm), Sclerophoma, score 1-2 [1]: <50 ppm | Threshold concentration (ppm), Trichoderma, score 0 [1]: 2500 ppm | Threshold concentration (ppm), Trichoderma, score 1-2 [1]: 500-1000 ppm | Surface score of treated mini-boards, 3 week incubation, 1500 ppm [2]: 0 | Surface score of treated mini-boards, 6 week incubation, 1500 ppm [2]: 2.4 | Surface score of treated mini-boards, 3 week incubation, 2500 ppm [2]: 0 | Surface score of treated mini-boards, 6 week incubation, 2500 ppm [2]: 2.4
